{"source": "patent US9809640B2", "about": "“ApoE peptide dimers and uses thereof” (priority 2010, dated 2017)", "key": {"PP2A [1]": {"system": "PP2A", "experiment": "Phosphatase activity of PP2A immunoprecipitated from MDA-MB-231 cells", "format": "cell-based", "conditions": "concentrations ≧100 nM, EGF-stimulated MB231", "excerpt": "FIG. 12A: Total PP2A activity immunoprecipitated from MDA-MB-231 cells treated with EGF and increasing concentrations of COG445. FIG. 12B: Western blot and densitometry analysis of total c-myc protein levels in U87 cells treated with the indicated concentrations of COG445 in the presence or absence of okadaic acid. FIG. 12C: Immunoprecipitation of the catalytic subunit of PP2A from MDA-MB-231 cells exposed to EGF and two different concentrations of COG445. The blot is probed for I2PP2A (SET) and PP2A catalytic subunit.\nTo further characterize the effect of COG445 on PP2A activity, MB231 cells were treated as above and the phosphatase activity of immunoprecipitated PP2A was measured. EGF stimulation caused a significant decrease in total PP2A activity compared to untreated serum starved cells (FIG. 12A). […] To further explore the extent of PP2A activation in response to COG445, total c-myc protein levels were determined by western blot analysis. C-myc is a substrate for PP2A and upon dephosphorylation is metabolized by ubiquitination and proteasomal degradation. In both U87 (FIG. 12B) and MB231 (data not shown) cell lines, c-myc levels decreased after a two-hour exposure to COG445 in a dose-dependent manner, reaching statistical significance at 1000 nM."}, "PDK1": {"system": "PDK1", "experiment": "PDK1 activation, Western blot", "format": "cell-based", "conditions": "U87 and MB231", "excerpt": "(§1) FIGS. 10A-10B. […] FIG. 10A: Western blot analysis of U87 glioblastoma cells exposed to the indicated concentrations of COG445 peptide in the presence of EGF. The blot is probed with antibodies for the activated EGF receptor (P-EGFR), total EGF receptor, activated PDK1 (P-PDK1), and total PDK1. FIG. 10B: Western blot and densitometry analysis of Akt activation induced by EGF in U87 cells in the presence of increasing concentrations of COG445.\n(§2) Akt signaling is often dysregulated in cancers thereby promoting cellular survival and proliferation. […] Given the effect of ApoE peptides on other inflammatory pathologies, we investigated the effect of an ApoE peptide dimer on Akt signaling in breast and brain cancer cells. A disulfide dimer of COG112 (SEQ ID NO: 1) was prepared as described in Example 1 (COG445). Adherent breast cancer cells, MDA-MB-231 (MB231), or glioblastoma cells, U87-MG (U87), were serum starved overnight and then exposed to COG445 for 2 hours before stimulating with epidermal growth factor (EGF) for 5 minutes. […] EGFR activation results in the activation of the PI3K/Akt signaling pathway, which is mediated by PDK1 activation."}, "Akt": {"system": "Akt", "experiment": "EGF-induced Akt activation, Western blot", "format": "cell-based", "excerpt": "as §1, §2"}, "U87MG glioblastoma cells": {"system": "U87MG glioblastoma cells", "format": "cell-based", "conditions": "U87, ~24 hours"}, "PP2A [2]": {"system": "PP2A", "experiment": "PP2A activity in 32D:BCR/Abl chronic myelogenous leukemia cells (PP2A immunoprecipitation assay)", "format": "cell-based", "conditions": "1 μM, 32D:BCR/Abl cells", "description": "FIGS. 4A-4B. The BMOE-linked dimer peptide COG449 activates PP2A in CML cells. FIG. 4A: 32D-BCR/Abl chronic myelogenous leukemia cells were treated with COG449 (1 μM), COG445 (1 μM) (disulfide-linked COG112 dimer) or no treatment, and the PP2A activity was measured. FIG. 4B: 32D:BCR/Abl cell cultures were treated with no compound, 1 μM COG449, or 5 μM FTY720 for 30 minutes followed by lysis in an NP40 lysis buffer. PP2A was immunoprecipitated and assayed with the PP2A Immunoprecipitation assay kit (Upstate) according to the manufacturer's directions.\nTo further evaluate the effect of COG449, we measured the ability of the stable dimerized COG449 compound to activate PP2A in 32D:p210^BCR/Abl chronic myelogenous leukemia cells. […] 32D:p210^BCR/Abl chronic myelogenous leukemia cells were treated with no compound, 1 μM COG449, or 5 μM FTY720. We observed a robust increase of approximately 45% relative specific activity (phosphate release/minute/unit protein) of PP2A upon treatment with COG449 alone when compared to the untreated control, and about 20% activation compared with FTY720 (FIG. 4B)."}, "[3]": {"experiment": "Mouse toxicity, maximum tolerated dose by intravenous injection", "conditions": "in vivo, maximum dose by intravenous injection without deaths after 24 hrs"}}, "note": "Positions of bridges follow the written chain, without caps; N, C: chain ends. Chains are numbered I, II in the order given."}
{"substance": "I: Ac-RQIKIWFQNRRMKWKKCLRVRLASHLRKLRKRLL-NH2 / II: Ac-RQIKIWFQNRRMKWKKCLRVRLASHLRKLRKRLL-NH2 (disulfide I:17-II:17) [COG445, COG112-C-C-COG112]", "values": [{"measurement": "PP2A activity", "setting": "PP2A [1]", "result": "significant (P<0.01) increase"}, {"measurement": "PDK1 activation (serine 241 phosphorylation)", "setting": "PDK1", "result": "did not alter"}, {"measurement": "Akt serine 473 phosphorylation", "setting": "Akt; 100 nM, both cell lines, significant at 1 μM", "result": "decreased"}, {"measurement": "Akt activation", "setting": "Akt; MB231 and U87 cells, EGF", "result": "dose-dependent decrease"}, {"measurement": "Akt phosphorylation in the presence of okadaic acid", "setting": "Akt; MB231 cells", "result": "did not inhibit"}, {"measurement": "proliferation by MTT reduction", "setting": "U87MG glioblastoma cells", "result": "dose-dependent decrease"}, {"measurement": "phosphate release due to activation of PP2A relative to untreated control cells", "setting": "PP2A [2]", "result": "increased phosphate release"}, {"measurement": "MTD at 24 h", "setting": "[3]", "result": 28, "unit": "mg/kg"}]}
